Assay results as given in patent US20090176714A1, “METHOD OF REDUCING THE EFFECTS OF ABeta AND COMPOSITIONS THEREFORE” (priority 2004, published 2009).

Tests used:
[1] = test system: human cortical slices; assay: Aβ-induced cell death (EthD-1/calcein AM) in human organotypic cortical cultures; type: cell-based
Source text: Four patients with intractable epilepsy who had elected to undergo a temporal lobe resection were recruited for this study. […] However, the overlying temporal cortex is normal. The age of the subjects ranged from 20 to 49. Brain tissue was obtained with informed consent from all patients.
Brain tissue was removed in large, intact pieces by electrocautery. Tissue obtained from the temporal cortex was approximately 3 cm×2 cm×1.5-2 cm. Immediately following removal, the tissue was placed in ice-cold Neuregen-I media (Brainbits, Springfield, Ill.), a CO2 independent transport and holding medium, and transported to a tissue culture laboratory. Meninges were removed before cutting the tissue with a scalpel to produce blocks about 0.5-1 cm^3 such that each gyrus was kept as intact as possible and the cortical layers were preserved. As described previously, incisions were made perpendicular to the longitudinal axis of the gyrus and along the white matter (Verwer et al., Exp. Gerontol., 38:167-172 (2003)). A vibratome was used to cut 400 μm thick slices at a plane perpendicular to the longitudinal axis of the gyrus. Thus, all cortical layers and a small amount of white matter were included in a slice. Alternately, small tissue pieces, which were usually obtained from the hippocampus, were cut at 400 μm using a McIlwain tissue chopper. No more than 2 slices were placed on a filter insert with a 30 mm diameter and a 0.4 μm filter pore size (Millipore, Billerica, Mass.) held in 6-well culture plates. For the first 12 hours, slices were kept in 1-1.2 mL Neurobasal media with B-27 supplement, 0.5 mM glutamine, and 1% penicillin/streptomycin (Invitrogen). Subsequently, the media was changed every 2 days using 1 mL of media without antibiotics. Organotypic cultures were maintained in a humidified incubator at 37° C. in 5% O2, 5% CO2, and 90% N for 4 to 28 days.
Cell death and viability was determined on live slices using the fluorescent probes from Molecular Probes' Live/Dead Kit. After a 40 minute incubation in calcein AM (1:400) and ethidium homodimer (1:1000) in phosphate buffered saline, slices were visualized at 200× magnification with an inverted Nikon Diaphot 200 microscope using the Bio-Rad MRC-1024 Laser Scanning Confocal system (Hercules, Calif.). Random images were captured at the emission spectrum of each probe, and Scion Image software (Frederick, Md.) was used to quantify the number of live and dead cells. At least three areas were imaged and used to determine the percent death for each slice. The percent death was calculated as the number of EthD-1 positive cells divided by the total number of EthD-1 and calcein AM positive cells.
β-amyloid1-42 and reverse Aβ (Aβ42-1) were obtained from BACHEM (Torrance, Calif.). These peptides were dissolved in 0.1% NH3OH at 222 μM. For treatments, Aβ or reverse Aβ was aggregated at 50 μM in Neurobasal media with B-27 supplement and 0.5 mM glutamine at 37° C. for 24 hours. Then, the slice culture media was removed, and the slices were treated with 1 mL of 25 μM or 50 μM Aβ, reverse Aβ, or vehicle for 24 hour. Human TTR (Calbiochem) was added to slices together with the Aβ treatment at final concentrations of 0.03, 0.3, and 3 μM TTR. sAPPα was obtained from Sigma (St. Louis, Mo.). Unless otherwise stated, all sAPPα treatments were performed at 1 nM 48 hours prior to the addition of Aβ. The 10 amino acid fragment of the carboxyl-terminal region of sAPPα (592-601 of APP695; SEVKMDAEFR was added according to the same protocol for sAPPα. Because a variable amount of tissue was obtained from each patient, not all treatments were performed on all patients.

[2] = test system: hippocampi of mice; assay: Stereotaxic injection into mouse hippocampus, TTR immunohistochemistry; type: in vivo
Method: (§1) Ten week old B6/SJL mice were stereotaxically injected on the right side of their hippocampi with sAPPα, a 10 amino acid fragment, or a scrambled 10-mer to an estimated 1 nM intra-hippocampal concentration. The contralateral sides were injected with artificial cerebrospinal fluid. Each injection consisted of […] of solution delivered over the period of 10 minutes. 48 hours after surgery, the mice were perfused with cold PBS, and their hippocampi were dissected and stored in stabilizing solution for subsequent RNA extraction.
48 hours after injection, mice were perfused with 4% PFA. The brains were harvested, hemisected, and fixed in 4% PFA overnight. They were then sunk in 30% sucrose for 24 hours, frozen, and sectioned. Sections were stained with cresyl violet for morphological verification of the injection site. Other sections were stained with goat anti-TTR, and biotinylated secondary antibody to show TTR protein expression, and ToPro3 as a nuclear marker. A control for nonspecific staining was done with goat IgG.
FIG. 13 is a set of stained micrographs showing stereotactic injection of sAPPα decamer into hippocampus induces expression of TTR in normal mouse brain. […] Injection of 1.5 μl of 15.3 nM solution prepared in artificial cerebral spinal fluid (CSF) was performed to approximate a final concentration of 1 nM in the hippocampus. The contralateral side was injected with only artificial CSF and used as control. […] The DNA binding dye ToPro3 was used to visualize nuclei (blue).

[3] = test system: hippocampi of mice; assay: Stereotaxic injection into mouse hippocampus, quantitative real-time PCR; type: in vivo; settings: estimated 1 nM intra-hippocampal concentration, 48 hours after injection
Method: as §1
RNA was extracted from hippocampal samples, DNase treated, and reverse transcribed. The cDNA was then used in quantitative real-time PCR performed with SYBR green on the Roche LightCycler system. Portions of each RNA sample were also used in no-RT traditional PCR reactions to validate the absence of DNA contamination.

Substance: DAEF [peptide of 4 residues within the 10 residue peptide (residues 597-600)]
- Protection against Aβ toxicity (percent death) ([1]; 50 μM Aβ, sample from one subject, FIG. 6A): protected against 50 μM Aβ toxicity
- TTR after injection into hippocampus ([2]; preliminary data): increased TTR

Substance: SEVKMDAEFR
- Protection against Aβ-induced death (percent death) ([1]; 1 nM 48 hours prior to 50 μM Aβ, four subjects, FIG. 6A): significant protection
- Amount of TTR in and around the CA1 hippocampal neurons, immunohistochemistry ([2]; 1.5 μl of 15.3 nM solution (about 1 nM final) vs contralateral CSF injected hippocampus, FIG. 13): increased the amount of TTR
- Levels of TTR within treated hippocampi ([2]; estimated 1 nM intra-hippocampal concentration, 48 hours after injection): increased levels of TTR
- Expression of IGFBP2 in treated vs control side of hippocampus ([3]; FIG. 8): induced an increase in expression
- Expression of IGF2 in treated vs control side of hippocampus ([3]; FIG. 10): induced an increase in expression

Substance: β-amyloid1-42 [Aβ]
- Number of cells that have lost membrane integrity ([1]; 50 μM Aβ): dramatic increase
- Percent death ([1]; 50 μM Aβ vs 50 μM reverse Aβ, FIG. 6A): significantly increased
